EC50, Emax and logD data for 15 compounds are collected here from ChEMBL document CHEMBL1833844, “Sulfonamides as selective oestrogen receptor β agonists” (Bioorg Med Chem Lett, 2011).

pEC50: −log10 of the molar value. Bounds are passed on as bounds.

Data set [1] has as its target T1, Estrogen receptor beta (Homo sapiens, UniProt Q92731). Briefly: Agonist activity at ERbeta expressed in […] cells co-expressing beta-lactamase after 18 hrs by beta-lactamase reporter gene assay. It counts as functional, cell-based.
Data set [2] deals with T1, Estrogen receptor beta. Nature of the data set: Agonist activity at ERbeta expressed in […] cells co-expressing beta-lactamase at 10 uM after 18 hrs by beta-lactamase reporter gene assay relative to estradiol. It counts as functional, cell-based.
A further data set deals with T2, Estrogen receptor (Homo sapiens, UniProt P03372).
T2 sequence (P03372 whole entry): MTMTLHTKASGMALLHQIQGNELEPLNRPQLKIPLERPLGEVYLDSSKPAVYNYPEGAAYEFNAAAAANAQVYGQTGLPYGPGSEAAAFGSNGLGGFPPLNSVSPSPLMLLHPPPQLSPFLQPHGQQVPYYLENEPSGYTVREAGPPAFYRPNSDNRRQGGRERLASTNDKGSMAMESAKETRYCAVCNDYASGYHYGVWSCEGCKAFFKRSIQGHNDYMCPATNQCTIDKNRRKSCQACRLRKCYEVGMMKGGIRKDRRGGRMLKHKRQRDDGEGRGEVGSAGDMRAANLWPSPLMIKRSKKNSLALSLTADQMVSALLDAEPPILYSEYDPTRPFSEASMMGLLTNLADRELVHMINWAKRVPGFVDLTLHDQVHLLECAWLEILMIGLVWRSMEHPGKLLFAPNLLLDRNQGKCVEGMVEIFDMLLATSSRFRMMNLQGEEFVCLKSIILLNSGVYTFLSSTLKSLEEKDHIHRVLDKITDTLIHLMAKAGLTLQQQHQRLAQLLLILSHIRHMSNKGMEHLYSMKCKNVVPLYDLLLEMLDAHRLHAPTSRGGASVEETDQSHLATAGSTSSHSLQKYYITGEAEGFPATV
Nature of the data set: Agonist activity at ERalpha expressed in HEK cells co-expressing beta-lactamase after 18 hrs by beta-lactamase reporter gene assay. It counts as functional, cell-based, HEK293.

For data set [3], the target named is T3, Estrogen receptor (Homo sapiens) (UniProt P03372).
T3 sequence (whole entry): T2 sequence (P03372 whole entry)
Briefly: Agonist activity at ERalpha expressed in HEK cells co-expressing beta-lactamase at 10 uM after 18 hrs by beta-lactamase reporter gene assay relative to estradiol. It counts as functional, cell-based. The following applies: HEK293.

The nature of data set [4]: Octanol-buffer partition coefficient, log D of the compound at pH 7.4. It counts as physicochemical.

T1 sequence (Q92731 whole entry): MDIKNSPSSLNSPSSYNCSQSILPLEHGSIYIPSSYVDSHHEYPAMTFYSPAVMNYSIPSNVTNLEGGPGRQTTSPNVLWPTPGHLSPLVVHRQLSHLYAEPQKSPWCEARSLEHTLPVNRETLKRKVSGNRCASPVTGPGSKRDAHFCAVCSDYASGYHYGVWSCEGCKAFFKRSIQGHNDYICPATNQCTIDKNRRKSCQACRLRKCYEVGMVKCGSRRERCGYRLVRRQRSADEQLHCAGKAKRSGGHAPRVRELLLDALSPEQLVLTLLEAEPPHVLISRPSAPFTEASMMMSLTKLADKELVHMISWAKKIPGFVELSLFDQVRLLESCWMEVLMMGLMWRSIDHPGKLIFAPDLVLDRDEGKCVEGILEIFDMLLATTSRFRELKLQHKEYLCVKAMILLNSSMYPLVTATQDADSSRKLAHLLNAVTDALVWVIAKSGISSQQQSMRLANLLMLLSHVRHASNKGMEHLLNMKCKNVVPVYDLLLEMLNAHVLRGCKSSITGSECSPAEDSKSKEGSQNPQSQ

As to `CC(O)(CN(C1CC1)S(=O)(=O)c1ccc(O)cc1)c1ccccc1` (racemic), the pEC50 was 7.00 on Estrogen receptor beta [1] and 5.64 at Estrogen receptor. The figures for the maximal effect (Emax) (on Estrogen receptor beta [2]; in data set [3]) were 47% and 79%, respectively. Also, in data set [4], the logD worked out at 2.5.
On the same counts, the results for `CCCCC(O)(CN(C1CC1)S(=O)(=O)c1ccc(O)cc1)c1ccccc1` (racemic) are 7.19, below 5.19, 36%, 82% and 3.9.
Consider `CN(CC(C)(O)c1ccccc1)S(=O)(=O)c1ccc(O)cc1` (racemic), for which the pEC50 is 5.96 on Estrogen receptor beta [1] and below 5.49 on Estrogen receptor. At Estrogen receptor beta [2], this compound yielded an Emax of 49%.
In the case of `CC(O)(CN(C1CC1)S(=O)(=O)c1ccc(O)cc1)c1c(F)cccc1F` (racemic), the negative-log EC50 (pEC50) is 7.29 at Estrogen receptor beta [1] and 5.42 on Estrogen receptor. For the same compound, the values for the Emax (at Estrogen receptor beta [2]; in data set [3]) were 45% and 75%, respectively. Besides, the logD in data set [4] was 2.9.
In the case of `CC(O)(CN(C1CC1)S(=O)(=O)c1ccc(O)cc1)c1cc[nH]n1` (racemic), the pEC50 at Estrogen receptor beta [1] was 5.83; at Estrogen receptor, below 5.00. At Estrogen receptor beta [2], this compound yielded an Emax of 86%. In addition, in data set [4], the logD was found to be 1.3.
Turning to `O=S(=O)(c1ccc(O)cc1)N1[C@@H]2CC[C@H]1C[C@H](CO)C2`, the pEC50 on Estrogen receptor beta [1] was below 5.52; on Estrogen receptor, 5.46. Besides, the Emax came out at 111% on Estrogen receptor beta [2] and 94% in data set [3].
Consider `CC(O)(CN(C1CC1)S(=O)(=O)c1ccc(O)cc1)c1ccc(O)cc1` (racemic), for which the pEC50 is 6.36 on Estrogen receptor beta [1] and below 5.32 at Estrogen receptor. Moreover, the Emax at Estrogen receptor beta [2] is 82%. In addition, the log distribution coefficient (logD) in data set [4] was found to be 2.
Turning to `C[C@](O)(CN(C1CC1)S(=O)(=O)c1ccc(O)cc1)c1ccccc1`, the pEC50 on Estrogen receptor beta [1] was 7.10; on Estrogen receptor it was below 5.27. Also, the Emax came to 48% at Estrogen receptor beta [2] and 107% in data set [3]. In addition, the logD in data set [4] turned out to be 2.7.
On the same counts, the results for `O=S(=O)(c1ccc(O)cc1)N(CC(O)(c1ccccc1)C(F)(F)F)C1CC1` (racemic) are 7.85, below 5.57, 43%, 66% and 3.2.
Take `Cc1ccc(O)c(CCNS(=O)(=O)c2ccc(O)cc2)c1`: on Estrogen receptor beta [1], the pEC50 was below 5.62. This compound also gave an Emax on Estrogen receptor beta [2] of 73%.
For the compound `CC(C)N(CC(C)(O)c1ccccc1)S(=O)(=O)c1ccc(O)cc1` (racemic), the figures for the pEC50 at Estrogen receptor beta [1] and at Estrogen receptor were 6.38 and below 5.58, respectively. Also, the Emax at Estrogen receptor beta [2] is 44%; in data set [3], 89%. This compound came in with a logD in data set [4] of 2.9.
For `CC(O)(CN(C1CC1)S(=O)(=O)c1ccc(O)cc1)c1ccccc1F` (racemic), the pEC50 was 7.32 on Estrogen receptor beta [1] and below 5.00 on Estrogen receptor. The maximal effect (Emax) on Estrogen receptor beta [2] was 49%. In data set [4], this compound returned a logD of 3.
For the compound `C[C@@](O)(CN(C1CC1)S(=O)(=O)c1ccc(O)cc1)c1ccccc1`, the pEC50 at Estrogen receptor beta [1] is 6.96; on Estrogen receptor, below 5.34. Also, the Emax on Estrogen receptor beta [2] is below 20%; in data set [3], 85%.
On the same counts, the results for `O=S(=O)(c1ccc(O)cc1)N(CCC(F)(F)F)c1ccc(O)cc1` are 7.37, 6.45, 104% and 87%.
Take `CCCCN(CC(C)(O)c1ccccc1)S(=O)(=O)c1ccc(O)cc1` (racemic): the results for the pEC50 on Estrogen receptor beta [1] and at Estrogen receptor were 7.08 and below 5.96, respectively. Further, the Emax on Estrogen receptor beta [2] was below 30%; in data set [3], 82%. Further, in data set [4], the logD was 3.4.
